According to the NIST ThermoML archive (doi:10.1016/j.jct.2012.09.026):

Assay: xn = mol fraction of the nth substance listed
Details: Liquid

CC(C)(C)O [2-methylpropan-2-ol] + O
mass density [kg/m3]
Details	298.15 K	308.15 K	323.15 K
101.3 kPa, Vibrating tube method, x1 = 0.0248	–	978.65	971.52
101.3 kPa, Vibrating tube method, x1 = 0.04241	–	969.43	960.77
101.3 kPa, Vibrating tube method, x1 = 0.05887	–	959.67	949.57
101.3 kPa, Vibrating tube method, x1 = 0.08929	–	941.57	930.6
101.3 kPa, Vibrating tube method, x1 = 0.1125	–	928.56	916.92
101.3 kPa, Vibrating tube method, x1 = 0.1566	–	906.33	893.97
101.3 kPa, Vibrating tube method, x1 = 0.208	–	886.22	873.34
101.3 kPa, Vibrating tube method, x1 = 0.3023	–	856.97	843.45
101.3 kPa, Vibrating tube method, x1 = 0.4045	–	834.17	820.18
101.3 kPa, Vibrating tube method, x1 = 0.4827	–	820.93	806.67
101.3 kPa, Vibrating tube method, x1 = 0.5344	–	812.83	798.37
101.3 kPa, Vibrating tube method, x1 = 0.6029	–	803.86	789.18
101.3 kPa, Vibrating tube method, x1 = 0.726	–	790.54	775.51
101.3 kPa, Vibrating tube method, x1 = 0.7999	–	784.37	768.91
101.3 kPa, Vibrating tube method, x1 = 0.8711	–	778.45	763
101.3 kPa, Vibrating tube method, x1 = 0.9183	–	775.09	759.52
101.3 kPa, Vibrating tube method, x1 = 0.9574	–	772.63	756.76
101.3 kPa, Vibrating tube method, x1 = 1	–	770.14	753.94
10000 kPa, Constant-volume piezometry, x1 = 0.0248	–	982.6	975.58
10000 kPa, Constant-volume piezometry, x1 = 0.04241	–	973.49	965.03
10000 kPa, Constant-volume piezometry, x1 = 0.05887	–	963.89	954.03
10000 kPa, Constant-volume piezometry, x1 = 0.08929	–	946.1	935.46
10000 kPa, Constant-volume piezometry, x1 = 0.1125	–	933.31	922.12
10000 kPa, Constant-volume piezometry, x1 = 0.1566	–	911.53	899.59
10000 kPa, Constant-volume piezometry, x1 = 0.208	–	891.88	879.35
10000 kPa, Constant-volume piezometry, x1 = 0.3023	–	863.34	850.13
10000 kPa, Constant-volume piezometry, x1 = 0.4045	–	841.23	827.69
10000 kPa, Constant-volume piezometry, x1 = 0.4827	–	828.5	814.74
10000 kPa, Constant-volume piezometry, x1 = 0.5344	–	820.71	806.74
10000 kPa, Constant-volume piezometry, x1 = 0.6029	–	812.19	797.93
10000 kPa, Constant-volume piezometry, x1 = 0.726	–	799.44	784.92
10000 kPa, Constant-volume piezometry, x1 = 0.7999	–	–	778.73
10000 kPa, Constant-volume piezometry, x1 = 0.8711	–	–	773.1
10000 kPa, Constant-volume piezometry, x1 = 0.9183	–	–	769.84
10000 kPa, Constant-volume piezometry, x1 = 0.9574	–	–	767.23
10000 kPa, Constant-volume piezometry, x1 = 1	–	–	764.58
25000 kPa, Constant-volume piezometry, x1 = 0.0248	–	988.54	981.52
25000 kPa, Constant-volume piezometry, x1 = 0.04241	–	979.65	971.36
25000 kPa, Constant-volume piezometry, x1 = 0.05887	–	970.24	960.64
25000 kPa, Constant-volume piezometry, x1 = 0.08929	–	952.8	942.55
25000 kPa, Constant-volume piezometry, x1 = 0.1125	–	940.3	929.62
25000 kPa, Constant-volume piezometry, x1 = 0.1566	–	919.1	907.6
25000 kPa, Constant-volume piezometry, x1 = 0.208	–	900.03	887.94
25000 kPa, Constant-volume piezometry, x1 = 0.3023	–	872.28	859.69
25000 kPa, Constant-volume piezometry, x1 = 0.4045	–	850.99	838.16
25000 kPa, Constant-volume piezometry, x1 = 0.4827	–	838.84	825.82
25000 kPa, Constant-volume piezometry, x1 = 0.5344	–	831.4	818.13
25000 kPa, Constant-volume piezometry, x1 = 0.6029	–	823.36	809.81
25000 kPa, Constant-volume piezometry, x1 = 0.726	–	811.34	797.59
25000 kPa, Constant-volume piezometry, x1 = 0.7999	–	–	791.84
25000 kPa, Constant-volume piezometry, x1 = 0.8711	–	–	786.62
25000 kPa, Constant-volume piezometry, x1 = 0.9183	–	–	783.6
25000 kPa, Constant-volume piezometry, x1 = 0.9574	–	–	781.19
25000 kPa, Constant-volume piezometry, x1 = 1	–	–	778.73
50000 kPa, Constant-volume piezometry, x1 = 0.0248	–	998.04	991.13
50000 kPa, Constant-volume piezometry, x1 = 0.04241	–	989.37	981.39
50000 kPa, Constant-volume piezometry, x1 = 0.05887	–	980.26	971.01
50000 kPa, Constant-volume piezometry, x1 = 0.08929	–	963.39	953.61
50000 kPa, Constant-volume piezometry, x1 = 0.1125	–	951.52	941.17
50000 kPa, Constant-volume piezometry, x1 = 0.1566	–	931.05	920.03
50000 kPa, Constant-volume piezometry, x1 = 0.208	–	912.67	901.32
50000 kPa, Constant-volume piezometry, x1 = 0.3023	–	885.81	874.39
50000 kPa, Constant-volume piezometry, x1 = 0.4045	–	865.39	853.64
50000 kPa, Constant-volume piezometry, x1 = 0.4827	–	853.93	841.81
50000 kPa, Constant-volume piezometry, x1 = 0.5344	–	846.76	834.43
50000 kPa, Constant-volume piezometry, x1 = 0.6029	–	839.04	826.63
50000 kPa, Constant-volume piezometry, x1 = 0.726	–	827.94	815.19
50000 kPa, Constant-volume piezometry, x1 = 0.7999	–	–	809.91
50000 kPa, Constant-volume piezometry, x1 = 0.8711	–	–	805.23
50000 kPa, Constant-volume piezometry, x1 = 0.9183	–	–	802.47
50000 kPa, Constant-volume piezometry, x1 = 0.9574	–	–	800.32
50000 kPa, Constant-volume piezometry, x1 = 1	–	–	798.2
75000 kPa, Constant-volume piezometry, x1 = 0.0248	–	1006.97	1000.34
75000 kPa, Constant-volume piezometry, x1 = 0.04241	–	998.3	990.63
75000 kPa, Constant-volume piezometry, x1 = 0.05887	–	989.51	980.49
75000 kPa, Constant-volume piezometry, x1 = 0.08929	–	973.24	963.7
75000 kPa, Constant-volume piezometry, x1 = 0.1125	–	961.84	951.62
75000 kPa, Constant-volume piezometry, x1 = 0.1566	–	941.93	931.22
75000 kPa, Constant-volume piezometry, x1 = 0.208	–	924	913.19
75000 kPa, Constant-volume piezometry, x1 = 0.3023	–	897.73	887.1
75000 kPa, Constant-volume piezometry, x1 = 0.4045	–	877.69	866.87
75000 kPa, Constant-volume piezometry, x1 = 0.4827	–	866.59	855.33
75000 kPa, Constant-volume piezometry, x1 = 0.5344	–	859.52	848.15
75000 kPa, Constant-volume piezometry, x1 = 0.6029	–	851.9	840.58
75000 kPa, Constant-volume piezometry, x1 = 0.726	–	841.27	829.57
75000 kPa, Constant-volume piezometry, x1 = 0.7999	–	–	824.52
75000 kPa, Constant-volume piezometry, x1 = 0.8711	–	–	820.17
75000 kPa, Constant-volume piezometry, x1 = 0.9183	–	–	817.6
75000 kPa, Constant-volume piezometry, x1 = 0.9574	–	–	815.64
75000 kPa, Constant-volume piezometry, x1 = 1	–	–	813.79
100000 kPa, Constant-volume piezometry, x1 = 0.0248	–	1015.14	1009.12
100000 kPa, Constant-volume piezometry, x1 = 0.04241	1010.64	1006.32	998.9
100000 kPa, Constant-volume piezometry, x1 = 0.05887	1003.04	997.93	989.01
100000 kPa, Constant-volume piezometry, x1 = 0.08929	988.13	982.34	972.81
100000 kPa, Constant-volume piezometry, x1 = 0.1125	976.75	970.82	961.04
100000 kPa, Constant-volume piezometry, x1 = 0.1566	957.51	951.42	941.06
100000 kPa, Constant-volume piezometry, x1 = 0.208	940.04	933.91	923.15
100000 kPa, Constant-volume piezometry, x1 = 0.3023	915	908.14	897.26
100000 kPa, Constant-volume piezometry, x1 = 0.4045	895.56	888.2	878.13
100000 kPa, Constant-volume piezometry, x1 = 0.4827	884.31	877.25	867.33
100000 kPa, Constant-volume piezometry, x1 = 0.5344	877.51	870.36	860.41
100000 kPa, Constant-volume piezometry, x1 = 0.6029	869.84	863.06	852.9
100000 kPa, Constant-volume piezometry, x1 = 0.726	–	852.47	842.31
100000 kPa, Constant-volume piezometry, x1 = 0.7999	–	–	837.55
100000 kPa, Constant-volume piezometry, x1 = 0.8711	–	–	833.28
100000 kPa, Constant-volume piezometry, x1 = 0.9183	–	–	830.96
100000 kPa, Constant-volume piezometry, x1 = 0.9574	–	–	829.12
100000 kPa, Constant-volume piezometry, x1 = 1	–	–	827.34
